Earlier results as cited in patent US4795645A, “Sustained release tablets of theophylline” (Yissum Research and Development, priority 1986, dated 1989).

Details: from oral solutions and plain uncoated tablets

Cn1c(=O)c2[nH]cnc2n(C)c1=O [Theophylline, theophylline]
absorption: rapidly, consistently and completely absorbed
